Read-outs that look alike come from different tables or passages of the source.
What was measured:
Format in all cases: cell-based, murine
[1] = Cell cytotoxicity determination (MTT assay); settings: mouse, RAW 264.7 macrophage cells, RAW 264.7 cells, read-out: Cytotoxicity IC50 (µM) ± S.E.M
Method: (§1) The synthesized compounds were screened for NO suppression activity in IFN-γ/LPS-stimulated RAW 264.7 macrophages at a 50 µM test concentration. […] The IC50 values of the fifty-seven bioactive compounds were determined and compared to that of the positive control, curcumin. An MTT assay was also carried out to confirm that NO inhibition was not due to cytotoxicity. […] The complete bioassay results of all the compounds are provided as Table S2 in Supplementary Data.
(§2) RAW 264.7 murine macrophages cells obtained from American Type Culture Collection (ATCC, Rockville, MD, USA) were grown in Dulbecco’s Modified Eagle’s Medium (DMEM) containing 10% fetal bovine serum (FBS) and 1% penicillin/streptomycin in a 95% air and 5% CO2 atmosphere at 37 °C.
(§3) Supernatant in each well was removed followed by addition of 100 µL DMEM. Subsequently, 20 µL of 3-(4,5-dimethylthiazol-2-yl)-2,5-diphenyltetrazolium bromide (MTT, 5 mg/mL) was then added and the plate was incubated in a 95% air and 5% CO2 atmosphere at 37 °C for 4 h. The mixture of culture media and MTT in all wells were removed and the purplish formazan crystals formed were dissolved in dimethyl sulfoxide (DMSO) and further incubated for 15 min at room temperature. The color intensity was then measured at 570 nm at room temperature.

[2] = tested on: RAW 264.7 cells; test: Cell cytotoxicity determination (MTT assay); settings: read-out: Cytotoxicity IC50 (µM) ± S.E.M
Method: as §1, §2, §3

[3] = tested on: NO production in IFN-γ/LPS-stimulated RAW 264.7 macrophages; test: NO suppression (Griess nitrite determination) in IFN-γ/LPS-stimulated RAW 264.7 macrophages; settings: for inhibition at 50 µM: RAW264.7, 50 µM test concentration, read-out: NO Inhibition at 50 µM (%) ± S.E.M; for NO Inhibition at 50 µM (%) ± S.E.M: 50 µM test concentration
Method: The synthesized compounds were screened for NO suppression activity in IFN-γ/LPS-stimulated RAW 264.7 macrophages at a 50 µM test concentration. […] The IC50 values of the fifty-seven bioactive compounds were determined and compared to that of the positive control, curcumin. An MTT assay was also carried out to confirm that NO inhibition was not due to cytotoxicity. […] The complete bioassay results of all the compounds are provided as Table S2 in Supplementary Data. RAW 264.7 murine macrophages cells obtained from American Type Culture Collection (ATCC, Rockville, MD, USA) were grown in Dulbecco’s Modified Eagle’s Medium (DMEM) containing 10% fetal bovine serum (FBS) and 1% penicillin/streptomycin in a 95% air and 5% CO2 atmosphere at 37 °C. RAW 264.7 cells at 90%–95% confluency were detached and seeded (50,000 cells/well) into a 96-well culture plate with 50 μL of DMEM and incubated for 24 h. The cells were then stimulated in […] of LPS (Escherichia coli, serotype 0111:B4) and 1 ng/ml of interferon-gamma (IFN-γ) in the presence or absence of test compounds for 17 h. Nitrite concentration was then determined by Griess assay by reacting 50 μL of cell culture supernatant with 50 μL of Griess reagent (1% sulfanilamide and 0.1% N-(1-naphthyl)ethylenediamine dihydrochloride in 2.5% phosphoric acid) at room temperature. The optical density was measured at 550 nm after 5 min of incubation at room temperature with a microplate reader.

[4] = Mus musculus, IFN-γ/LPS-stimulated RAW 264.7 cells
[5] = Mus musculus, RAW264.7, IFN-γ/LPS-stimulated RAW 264.7 cells, read-out: NO Inhibition IC50 (µM) ± S.E.M
[6] = Mus musculus, RAW264.7, Table 6, NO suppression IC50 used for QSAR, unit inferred, read-out: IC50
[7] = Mus musculus, RAW264.7, −log IC50 of NO suppression, read-out: pIC50 (converted)
[8] = IFN-γ/LPS-stimulated RAW 264.7 cells
[9] = IFN-γ/LPS-stimulated RAW 264.7 cells, read-out: NO Inhibition IC50 (µM) ± S.E.M

| IC50 [3, 5] [µM] | IC50 [3, 6] [µM] | IC50 [3, 7] [µM] | IC50 [3, 9] [µM] | SMILES | IC50 [1] [µM] | IC50 [2] [µM] | inhibition at 50 µM [3, 4] [%] | NO Inhibition at 50 µM (%) ± S.E.M [3, 8] [%] |
| --- | --- | --- | --- | --- | --- | --- | --- | --- |
| 36.4 ± 1.8 | 36.4 ± 1.8 | 36.3 | – | O=C(/C=C(O)/C=C/c1ccc(Cl)s1)c1ccccc1O [Compound 17] | 67.8 ± 2.87 | 67.9 ± 2.9 | 63.8 ± 2.6 | – |
| 39 ± 1.24 | 39 ± 1.2 | 38.9 | – | COc1ccc(C(=O)/C=C(O)/C=C/c2ccccc2OC)c(O)c1 [Compound 48] | 88.5 ± 2.54 | 88.6 ± 2.5 | 66.3 ± 6.75 | 66.3 ± 6.8 |
| 21.7 ± 0.5 | 21.7 ± 0.5 | 21.9 | – | COc1ccc(C(=O)/C=C(O)/C=C/c2ccc(OC)c(OC)c2)c(O)c1 [Compound 51] | > 100 | – | 58.9 ± 2.76 | 58.9 ± 2.8 |
| 29.3 ± 0.306 | 29.3 ± 0.3 | 29.5 | – | COc1ccc(C(=O)/C=C(O)/C=C/c2cc(OC)c(OC)c(OC)c2)c(O)c1 [Compound 52] | > 100 | – | 96.39 ± 0.37 | 96.4 ± 0.4 |
| 25.9 ± 0.325 | 25.9 ± 0.3 | 25.7 | – | COc1ccc(O)c(C(=O)/C=C(O)/C=C/c2ccccc2)c1 [Compound 58] | > 100 | – | 92.8 ± 1.8 | 92.8 ± 1.8 |
| 35.7 ± 0.789 | 35.7 ± 0.8 | 35.5 | – | COc1ccc(O)c(C(=O)/C=C(O)/C=C/c2cccc(Cl)c2)c1 [Compound 59] | > 100 | – | 89.1 ± 3.56 | 89.1 ± 3.6 |
| 27.41 ± 0.207 | 27.4 ± 0.2 | 27.5 | – | COc1ccc(O)c(C(=O)/C=C(O)/C=C/c2ccccc2OC)c1 [Compound 61] | > 100 | – | 65.8 ± 2.37 | 65.8 ± 2.4 |
| 35.06 ± 0.165 | 35.1 ± 0.2 | 34.7 | – | COc1cccc(/C=C/C(O)=C/C(=O)c2cc(OC)ccc2O)c1 [Compound 62] | > 100 | – | 92.6 ± 1.18 | 92.6 ± 1.2 |
| 19.8 ± 0.365 | 19.8 ± 0.4 | 20 | < 20 | COc1ccc(O)c(C(=O)/C=C(O)/C=C/c2ccc(OC)c(OC)c2)c1 [Compound 63] | > 100 | – | 92.19 ± 0.77 | 92.2 ± 0.8 |
| 18.4 ± 0.246 | 18.4 ± 0.2 | 18.2 | < 20 | COc1ccc(O)c(C(=O)/C=C(O)/C=C/c2cc(OC)c(OC)c(OC)c2)c1 [Compound 64] | > 100 | – | 95.2 ± 1.09 | 95.2 ± 1.1 |
| 71.5 ± 2.5 | 71.5 ± 2.5 | 70.8 | – | COc1ccc(O)c(C(=O)/C=C(O)/C=C/c2ccco2)c1 [Compound 67] | > 100 | – | 72.1 ± 3.07 | 72.1 ± 3.1 |
| 33.4 ± 0.695 | 33.4 ± 0.7 | 33.1 | – | COc1ccc(/C=C/C(O)=C/C(=O)c2cc(OC)ccc2O)c(OC)c1 [Compound 68] | > 100 | – | 79.5 ± 4.71 | 79.5 ± 4.7 |
| 35.6 ± 0.621 | 35.6 ± 0.6 | 35.5 | – | COc1ccc(O)c(C(=O)/C=C(O)/C=C/c2cccs2)c1 [Compound 71] | > 100 | – | 85 ± 2.66 | 85.0 ± 2.7 |
| 28.9 ± 1.5 | 28.9 ± 1.5 | 28.8 | – | O=C(/C=C(O)/C=C/c1ccccc1O)c1ccccc1O [Compound 79] | 72.6 ± 2.61 | 56.4 ± 1.2 | 95.46 ± 0.59 | 95.5 ± 0.6 |
| 44.8 ± 1.57 | 44.8 ± 1.6 | 44.7 | – | O=C(/C=C(O)/C=C/c1cccs1)c1ccc(O)cc1O [Compound 95] | > 100 | – | 60.4 ± 2.04 | 60.4 ± 2.0 |
